Here are results for six compounds from PubChem BioAssay AID1259411 (Chemical Carcinogenesis Research Information System (CCRIS), 2018).

Active and inactive are the calls of the source. How the calls were made is not given here.

This series deals with rodent carcinogenicity bioassays, tumor incidence. Description: CCRIS carcinogenicity studies. The method, boiled down: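 Archive of carcinogenicity, mutagenicity, tumor promotion and tumor inhibition results drawn from journals, NCI reports and other sources, expert-reviewed; covers 1985-2011 and is no longer updated.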

`O=[N+]([O-])c1ccc2ccc3c([N+](=O)[O-])c4ccccc4c4ccc1c2c34`: the carcinogen call was “inactive; negative” (Species: RAT, Strain/Sex: F344/MALE, Route: SUBCUTANEOUS IMPLANT, Dose: 0, 8, 40, 200, 1000 UG IN 50 µL BEESWAX/TRICAPRYLIN IMPLANTED FOR UP TO 45 WK (STUDY DURATION: 45 WK), Dose: 0, 8, 40, 200, 1000 UG IN 50 µL BEESWAX/TRICAPRYLIN IMPLANTED FOR UP TO 45 WK (STUDY DURATION: 45 WK)) and “inactive; negative” (Species: RAT, Strain/Sex: F344/MALE, Route: SUBCUTANEOUS, Dose: 0, 8, 40, 200, 1000 UG SUSPENDED IN BEESWAX/TRICAPRYLIN (1:1) ONCE, Dose: 0, 8, 40, 200, 1000 UG SUSPENDED IN BEESWAX/TRICAPRYLIN (1:1) ONCE).

Turning to `CC(C)N(C(=O)SC/C(Cl)=C/Cl)C(C)C`, the carcinogen call reads like this: (Species: MOUSE, Strain/Sex: B6AKF1/MALE, Route: GAVAGE/ORAL, Dose: 215 MG/KG IN GELATIN FROM D 7-28 OF LIFE THEN 560 PPM IN DIET, Tumor Site: Type of Lesion: LIVER: HEPATOMA) “active; positive”; (Species: MOUSE, Strain/Sex: B6C3F1/MALE,FEMALE, Route: GAVAGE/ORAL, Dose: 215 MG/KG IN GELATIN FROM D 7-28 OF LIFE THEN 560 PPM IN DIET, Tumor Site: Type of Lesion: LIVER: HEPATOMA) “active; positive”; (Species: RAT, Strain/Sex: STRAIN-CD/MALE,FEMALE, Route: ORAL, Dose: 150, 300 PPM IN DIET FOR 78 WK) “inactive; negative”.

Take `CCNc1nc(Cl)nc(NC(C)C)n1`: the carcinogen call (Species: RAT, Strain/Sex: F344/FEMALE, Route: ORAL, Dose: 0, 10, 70, 200, 400 PPM IN DIET FOR 24 MO (STUDY DURATION: 24 MO), Dose: 0, 10, 70, 200, 400 PPM IN DIET FOR 24 MO (STUDY DURATION: 24 MO)) was “inactive; negative”; the carcinogen call (Species: RAT, Strain/Sex: F344/LATI/FEMALE, Route: ORAL, Dose: 0, 500, 1000 PPM TECHNICAL GRADE IN FEED FOR 8 WK THEN 0, 375, 750 PPM FOR LIFE SPAN (STUDY DURATION: LIFE SPAN), Dose: 0, 500, 1000 PPM TECHNICAL GRADE IN FEED FOR 8 WK THEN 0, 375, 750 PPM FOR LIFE SPAN (STUDY DURATION: LIFE SPAN), Tumor Site: Type of Lesion: UTERUS: ADENOCARCINOMA, HEMATOPOIETIC SYSTEM: LEUKEMIA OR LYMPHOMA) is “active; positive”; the carcinogen call (Species: RAT, Strain/Sex: F344/LATI/MALE, Route: ORAL, Dose: 0, 500, 1000 PPM TECHNICAL GRADE IN FEED FOR 8 WK THEN 0, 375, 750 PPM FOR LIFE SPAN (STUDY DURATION: LIFE SPAN), Dose: 0, 500, 1000 PPM TECHNICAL GRADE IN FEED FOR 8 WK THEN 0, 375, 750 PPM FOR LIFE SPAN (STUDY DURATION: LIFE SPAN), Tumor Site: Type of Lesion: MAMMARY GLAND: BENIGN TUMOR) is “active; positive”; the carcinogen call (Species: RAT, Strain/Sex: SPRAGUE-DAWLEY/FEMALE, Route: ORAL, Dose: 0, 70, 400 PPM IN DIET FOR 24 MO (STUDY DURATION: 24 MO), Dose: 0, 70, 400 PPM IN DIET FOR 24 MO (STUDY DURATION: 24 MO)) was “inactive; negative”.

For the compound `CNNCc1ccc(C(=O)NC(C)C)cc1`, the carcinogen call reads like this: (Species: MOUSE, Strain/Sex: B6C3F1/FEMALE, Route: INTRAPERITONEAL, Dose: 0, 6, 12 MG/KG IN BUFFERED SALINE 3/WK FOR 52 WK (STUDY DURATION: 67-85 WK), Dose: 0, 6, 12 MG/KG IN BUFFERED SALINE 3/WK FOR 52 WK (STUDY DURATION: 67-85 WK), Tumor Site: Type of Lesion: LUNG: ALVEOLAR/BRONCHIOLAR ADENOMA, HEMATOPOIETIC SYSTEM (LEUKEMIA), LYMPHATIC SYSTEM: LYMPHOMA, UTERUS: ADENOCARCINOMA, Tumor Site: Type of Lesion: LUNG: ALVEOLAR/BRONCHIOLAR ADENOMA, HEMATOPOIETIC SYSTEM (LEUKEMIA), LYMPHATIC SYSTEM: LYMPHOMA, UTERUS: ADENOCARCINOMA) “active; positive”; (Species: MOUSE, Strain/Sex: B6C3F1/MALE, Route: INTRAPERITONEAL, Dose: 0, 6, 12 MG/KG IN BUFFERED SALINE 3/WK FOR 52 WK (STUDY DURATION: 67-85 WK), Dose: 0, 6, 12 MG/KG IN BUFFERED SALINE 3/WK FOR 52 WK (STUDY DURATION: 67-85 WK), Tumor Site: Type of Lesion: LUNG: ALVEOLAR/BRONCHIOLAR ADENOMA OR CARCINOMA, HEMATOPOIETIC SYSTEM (LEUKEMIA), LYMPHATIC SYSTEM: LYMPHOMA, BRAIN: OLF, Tumor Site: Type of Lesion: LUNG: ALVEOLAR/BRONCHIOLAR ADENOMA OR CARCINOMA, HEMATOPOIETIC SYSTEM (LEUKEMIA), LYMPHATIC SYSTEM: LYMPHOMA, BRAIN: OLF) “active; positive”; (Species: RAT, Strain/Sex: BR46/MALE, Route: INTRAVENOUS, Dose: 24 MG/KG 1/WK FOR 52 WK, Tumor Site: Type of Lesion: MULTIPLE SITES: BENIGN TUMOR OR MALIGNANT TUMOR) “active; positive”; (Species: RAT, Strain/Sex: SPRAGUE-DAWLEY/FEMALE, Route: INTRAPERITONEAL, Dose: 0, 15, 30 MG/KG IN BUFFERED SALINE 3/WK FOR 26 WK (STUDY DURATION: 31-86 WK), Dose: 0, 15, 30 MG/KG IN BUFFERED SALINE 3/WK FOR 26 WK (STUDY DURATION: 31-86 WK), Tumor Site: Type of Lesion: LYMPHATIC SYSTEM: MALIGNANT LYMPHOMA, MAMMARY GLAND: ADENOMA (NOS) OR ADENOCARCINOMA (NOS), BRAIN (CEREBRUM): OLFACTORY, Tumor Site: Type of Lesion: LYMPHATIC SYSTEM: MALIGNANT LYMPHOMA, MAMMARY GLAND: ADENOMA (NOS) OR ADENOCARCINOMA (NOS), BRAIN (CEREBRUM): OLFACTORY) “active; positive”; (Species: RAT, Strain/Sex: SPRAGUE-DAWLEY/MALE, Route: INTRAPERITONEAL, Dose: 0, 15, 30 MG/KG IN BUFFERED SALINE 3/WK FOR 26 WK (STUDY DURATION: 43-86 WK), Dose: 0, 15, 30 MG/KG IN BUFFERED SALINE 3/WK FOR 26 WK (STUDY DURATION: 43-86 WK), Tumor Site: Type of Lesion: HEMATOPOIETIC SYSTEM (LEUKEMIA), LYMPHATIC SYSTEM: MALIGNANT LYMPHOMA, MAMMARY GLAND: ADENOMA (NOS) OR ADENOSARCOMA (NOS, Tumor Site: Type of Lesion: HEMATOPOIETIC SYSTEM (LEUKEMIA), LYMPHATIC SYSTEM: MALIGNANT LYMPHOMA, MAMMARY GLAND: ADENOMA (NOS) OR ADENOSARCOMA (NOS) “active; positive”.

Take `[O-][Cl+2]([O-])O`: the carcinogen call runs as follows: (Species: MOUSE, Strain/Sex: B6C3F1/FEMALE (50, 50, 50, 50), Route: DRINKING WATER, Dose: 0, 500, 1000, 2000 MG/L FOR 105 WKS (STUDY DURATION: 105 WKS), Dose: 0, 500, 1000, 2000 MG/L FOR 105 WKS (STUDY DURATION: 105 WKS), Tumor Site: Type of Lesion: PANCREAS: ADENOMA OR CARCINOMA) “equivocal”; (Species: MOUSE, Strain/Sex: B6C3F1/MALE (50, 50, 50, 50), Route: DRINKING WATER, Dose: 0, 500, 1000, 2000 MG/L FOR 105 WKS (STUDY DURATION: 105 WKS), Dose: 0, 500, 1000, 2000 MG/L FOR 105 WKS (STUDY DURATION: 105 WKS)) “inactive; negative”; (Species: RAT, Strain/Sex: F344/N/FEMALE (50, 50, 50, 50), Route: DRINKING WATER, Dose: 0, 125, 1000, 2000 MG/L FOR 105 WK (STUDY DURATION: 105 WKS), Dose: 0, 125, 1000, 2000 MG/L FOR 105 WK (STUDY DURATION: 105 WKS)) “inactive; negative; ntp reports as some evidence for thyroid but p values are not statisti”; (Species: RAT, Strain/Sex: F344/N/MALE (50, 50, 50, 50), Route: DRINKING WATER, Dose: 0, 125, 1000, 2000 MG/L FOR 105 WK (STUDY DURATION: 105 WKS), Dose: 0, 125, 1000, 2000 MG/L FOR 105 WK (STUDY DURATION: 105 WKS), Tumor Site: Type of Lesion: THYROID: FOLLICULAR CELL ADENOMA OR CARCINOMA) “active; positive (p = 0.052); ntp reports as some evidence”.

As to `CN(CCC=O)N=O`, the carcinogen call (Species: RAT, Strain/Sex: F344/MALE, Route: SUBCUTANEOUS, Dose: 0, 6.57 MG (0.057 MMOL) IN 0.3 ML TRIOCTANOIN 3 D/WK FOR 15 WK (STUDY DURATION: 100 WK), Tumor Site: Type of Lesion: NASAL CAVITY: PAPILLOMA, LIVER: ADENOMA, LUNG: ADENOMA, Tumor Site: Type of Lesion: NASAL CAVITY: PAPILLOMA, LIVER: ADENOMA, LUNG: ADENOMA) was “active; positive”.
